Results: patent US20230310452A1, “BROMODOMAIN AND EXTRA TERMINAL DOMAIN (BET) INHIBITOR COMPOSITIONS AND METHODS THEREOF FOR USE AS ANTI-AGING AGENTS” (MDI Biological Laboratory, priority 2020, published 2023)
“Also recorded” adds a separate entry of the source.

Assays:
CGI- gene expression [1] = assay: CGI- gene expression upon treatment with BET inhibitors other than JQ1 in cell lines/tissues (FIG. 14); assay type: cell-based; conditions: indicated cell lines/tissues, concentrations, durations, vs untreated controls
Description: Moreover, the cell line or tissue used in the BET inhibitor treatment, as well as treatment duration and concentration were also provided.

BET = conditions: cited from earlier work
CGI- genes / CGI+ genes = assay: Gene expression changes upon JQ1 treatment versus untreated controls (FIGS. 12A-12C); assay type: cell-based
Description: (§1) FIG. 12 illustrates JQ1 treatment suppresses CGI- gene misexpression. FIGS. 12A-12B show gene expression changes upon JQ1 treatment. […] All data are from the comparison of JQ1 treated with untreated controls for CGI+ genes (upper) and CGI- genes (lower) for each cell type. TAC: transverse aortic constriction. […] Representative data from three blind tests with similar results are shown. The control (Con) curve is to the left of the JQ1 treatment curve from 12-19 days post treatment.
BET family proteins (e.g., BRD2/4) are also components of local enhancer mediated transcriptional activation (FIG. 11A).
(§2) The effects of JQ1 on C. elegans lifespan was also tested. […] Treatment with BET inhibitors can suppress misexpression of CGI- genes during aging, and that this, in turn, will delay age-associated degenerative changes in mice.

C. elegans = C. elegans lifespan after one-time JQ1 treatment (FIG. 12D); assay type: in vivo; conditions: representative of three blind tests
Description: as §1, §2

CGI- gene expression [2] = assay: JQ1 in vivo treatment of mice, published RNA-seq data, CGI- gene expression (FIG. 13); conditions: intraperitoneal injections of 50 mg/kg/day, vs untreated controls
Description: FIG. 13 illustrates JQ1 in vivo treatment data based on published RNA-seq data generated from mice by intraperitoneal injections of 50 mg/kg/day as indicated. All data are from the comparison with untreated controls for CGI+ genes (upper) and CGI- genes (lower) for each of *p < 0.05; **p < 0.01, ***p< 0.001. Sham operation; transverse aortic constriction (TAC); myocardial infarction (MI).
All of the data were based on published RNA-seq data and compared to untreated controls for CGI+ and CGI- genes.

[3] = cited from earlier work

Row | Compound | CGI- gene expression upon BET inhibitors other than JQ1 (CGI- gene expression [1]) | further results
1 | CCNC(=O)c1cc2c(-c3cc(C(C)(C)O)ccc3Oc3c(C)cc(F)cc3C)cn(C)c(=O)c2[nH]1 [ABBV-744, N-ethyl-4-(2-(4-fluoro-2,6-dimethylphenoxy)-5-(2-hydroxypropan-2-yl)phenyl)-6-methyl-7-oxo-6,7-dihydro-1H-pyrrolo[2,3-c]pyridine-2-carboxamide] | suppress Cytosine-phosphate-Guanine (CpG) island negative genes | 
2 | Oc1ccc(C=Cc2cc(O)cc(O)c2)cc1 [resveratrol] |  | pan-BET inhibitor activity (BET): pan-BET inhibitor activity
3 | CCS(=O)(=O)Nc1ccc(Oc2ccc(F)cc2F)c(-c2cn(C)c(=O)c3[nH]ccc23)c1 [ABBV-075, N-(4-(2,4-difluorophenoxy)-3-(6-methyl-7-oxo-6,7-dihydro-1H-pyrrolo[2,3-c]pyridin-4-yl)phenyl)ethanesulfonamide] | suppress Cytosine-phosphate-Guanine (CpG) island negative genes | 
4 | Cc1sc2c(c1C)C(c1ccc(Cl)cc1)=N[C@@H](CC(=O)Nc1ccc(OCCOCCOCCOCCNc3cccc4c3C(=O)N(C3CCC(=O)NC3=O)C4=O)cc1)c1nnc(C)n1-2 (stereo partly drawn) [ARV-825, 2-((S)-4-(4-chlorophenyl)-2,3,9-trimethyl-6H-thieno[3,2-f][1,2,4]triazolo [4,3-a][1,4]diazepin-6-yl)-N-(4-(2-(2-(2-(2-((2-(2,6-dioxopiperidin-3-yl)-1,3-dioxoisoindolin-4-yl)amino)ethoxy)ethoxy)ethoxy)ethoxy)phenyl)acetamide] | suppress Cytosine-phosphate-Guanine (CpG) island negative genes | 
5 | Cc1sc2c(c1C)C(c1ccc(Cl)cc1)=N[C@@H](CC(=O)OC(C)(C)C)c1nnc(C)n1-2 [JQ1, tert-butyl (S)-2-(4-(4-chlorophenyl)-2,3,9-trimethyl-6H-thieno[3,2-f][1,2,4]triazolo[4,3-a][1,4]diazepin-6-yl)acetate] |  | overlap of CGI- genes downregulated by JQ1 with CGI- genes upregulated during aging or upon nuclear architecture disruption (CGI- genes / CGI+ genes; FIG. 12C): largely overlapped; CGI- gene expression upon JQ1 treatment (CGI- genes / CGI+ genes; JQ1 treated vs untreated controls, each cell type, FIGS. 12A-12B): global downregulation of CGI- gene expression; also recorded: suppresses CGI- gene expression; CGI+ gene expression upon JQ1 treatment (CGI- genes / CGI+ genes; JQ1 treated vs untreated controls, FIGS. 12A-12B): not significantly affected; median lifespan of adult C. elegans (C. elegans): significantly extended the median lifespan; also recorded: lifespan extension; CGI- gene expression in mice (CGI- gene expression [2]): suppression of CGI- gene expression; safety for humans [3]: safe for humans
6 | COc1nnc2ccc(N3CCC(c4ccc(OCCN5CCN(C)C(=O)[C@H]5C)cc4)CC3)nn12 [AZD 5153, (R)-4-(2-(4-(1-(3-methoxy-[1,2,4]triazolo[4,3-b]pyridazin-6-yl)piperidin-4-yl)phenoxy)ethyl)-1,3-dimethylpiperazin-2-one] | suppress Cytosine-phosphate-Guanine (CpG) island negative genes | 
7 | COc1cc(-c2cn(C)c(=O)c3cnccc23)cc(OC)c1CN(C)CC(=O)NCCOCCOCCNc1cccc2c1C(=O)N(C1CCC(=O)NC1=O)C2=O.Cl.Cl (centres unmarked) [dBRD9, 2-[[[4-(1,2-Dihydro-2-methyl-1-oxo-2,7-naphthyridin-4-yl)-2-6-dimethoxyphenyl]methyl]methylamino]-N-[2-[2-[2-[[2-(2,6-dioxo-3-piperidinyl)-2,3-dihydro-1,3-dioxo-1H-isoindol-4-yl]amino]ethoxy]ethoxy]ethyl] acetamide dihydrochloride] | suppress Cytosine-phosphate-Guanine (CpG) island negative genes | 
8 | Cc1sc2c(c1C)C(c1ccc(Cl)cc1)=N[C@@H](CC(=O)NCCCCCCCCCCNC(=O)C[C@@H]1N=C(c3ccc(Cl)cc3)c3c(sc(C)c3C)-n3c(C)nnc31)c1nnc(C)n1-2 [MS645, (S)-N,N′-(decane-1,10-diyl)bis(2-((6S)-4-(4-chlorophenyl)-2,3,9-trimethyl-6H-thieno[3,2-f] [1,2,4]triazolo[4,3-a][1,4]diazepin-6-yl)acetamide)] | suppress Cytosine-phosphate-Guanine (CpG) island negative genes | 
9 | COc1cc2c(cc1-c1c(C)noc1C)ncc1[nH]c(=O)n([C@H](C)c3ccccn3)c12 [I-BET 151, (R)-7-(3,5-dimethylisoxazol-4-yl)-8-methoxy-1-(1-(pyridin-2-yl)ethyl)-1,3-dihydro-2H-imidazo[4,5-c]quinolin-2-one] | suppress Cytosine-phosphate-Guanine (CpG) island negative genes | 
10 | Cc1noc(C)c1-c1cnc2c(-c3ccc(C(=O)O)cc3)cn([C@@H](C)c3ccccn3)c2c1 [PLX51107, (S)-4-(6-(3,5-dimethylisoxazol-4-yl)-1-(1-(pyridin-2-yl)ethyl)-1H-pyrrolo[3,2-b]pyridin-3-yl)benzoic acid] | suppress Cytosine-phosphate-Guanine (CpG) island negative genes | 
11 | COC(=O)C[C@@H]1N=C(c2ccc(Cl)cc2)c2c(sc(C)c2C)-n2c(C)nnc21 [MS417, methyl (S)-2-(4-(4-chlorophenyl)-2,3,9-trimethyl-6H-thieno[3,2-f][1,2,4]triazolo[4,3-a][1,4]diazepin-6-yl)acetate] | suppress Cytosine-phosphate-Guanine (CpG) island negative genes | 
12 | Cc1sc2c(c1C)C(c1ccc(Cl)cc1)=N[C@@H](CC(N)=O)c1nnc(C)n1-2 [CPI-203, (S)-2-(4-(4-chlorophenyl)-2,3,9-trimethyl-6H-thieno[3,2-f][1,2,4]triazolo [4,3-a][1,4]diazepin-6-yl)acetamide] | suppress Cytosine-phosphate-Guanine (CpG) island negative genes | 
